Experimental data: EP0350260A2, “New oxamic acid compounds and pharmaceutical composition for use in improvement of damaged cerebral functions of brain” (MEIJI SEIKA KAISHA LTD., priority 1988, dated 1990)

Legend:
ddy mice = conditions: mouse, in vivo
Protocol: The toxicity of the compounds of the general formula (I) usable in this invention was evaluated by using N,N-di-isopropyloxamic acid as one example.

[1] = system: mice having cerebral anoxia experimentally induced under the load of hypobaric hypoxia; test: Survival time of mice with cerebral anoxia induced under hypobaric hypoxia (Test 1); assay type: in vivo; conditions: 100 mg/kg intraperitoneally, 30 minutes before evacuation to 190 mmHg; 6 ddy mice per group; untreated control group = 100
Protocol: ddy Mice (6 weeks old, body weight: 25-30 g, each group comprising 6 ddy mice) were administered intraperitoneally with the compounds of the present invention, respectively. Each of the tested compounds of this invention had been beforehand dissolved in redistilled water and the aqueous solution was administered in an amount of 0.1 ml per 10 g body weight. Thirty minutes after the administration, the mice were individually placed in hermetic transparent containers. The containers were rapidly evacuated to 190 mmHg by means of a vacuum pump. Time was measured from the initiation of the evacuation to the death of each mouse due to respiratory failure. That time was recorded as the survival time (seconds) of mice.
The ratios of the survival time of the groups of the treated mice which received the administration of the tested compounds of this invention divided by the survival time of a control group (untreated) which received no administration of the drug were calculated.

Structure (SMILES) | toxicity (survival of mice) (ddy mice) | Survival time ratio (control group: 100) [1]
CC(C)N(C(=O)C(=O)O)C(C)C [N,N-di-isopropyl-oxamic acid, N,N-di-isopropyloxamic acid] | all the mice tolerated it and remained alive | 155
CCCN(CC)C(=O)C(=O)O [N-ethyl-N-n-propyl-oxamic acid, N-ethyl-N-n-propyloxamic acid] |  | 166
CCCN(CCC)C(=O)C(=O)O [N,N-di-n-propyl-oxamic acid, N,N-di-n-propyloxamic acid] |  | 181
CCCCN(CC)C(=O)C(=O)O [N-ethyl-N-butyl-oxamic acid, N-ethyl-N-n-butyloxamic acid] |  | 116
C=CCN(CC=C)C(=O)C(=O)O [N,N-di-allyloxamic acid] |  | 187
